Laboratory results as given in US10071097B2, “Molecular targets for the treatment of wounds, in particular chronic wounds” (URGO RECHERCHE INNOVATION ET DEVELOPPEMENT, priority 2013, dated 2018).

Tests used:
Type in all cases: cell-based
[1] = test system: Normal Human Dermal Fibroblast (NHDF); assay: fibroblast to myofibroblast differentiation of NHDF (markers αSMA, PI16, ACTC1 by RT-qPCR, αSMA positive cells)
Method: (§1) NHDF, isolated from human explants, were purchased from Promocell. NHDF were cultivated in DMEM-F12 (Invitrogen), supplemented with 10% FCS (Invitrogen, 5 μg/mL of insulin and 1 ng/mL of b-FGF (PromoKine)).
(§2) For experiments, cells were deprived of insulin and b-FGF during 48 hours. Then, the cells were cultivated on collagen coated culture plates in DMEM-F12, supplemented with 10% FCS, 10 ng/mL of TGF-β1 (Promocell) for 4 days. Four points were tested in order to appreciate the effect of exudate on fibroblast differentiation: untreated cells (T−E−), fibroblasts treated with TGF-β1 (T+E−), cells treated with exudate (T−E+) and finally fibroblasts treated with TGF-β1 and exudate at the same time (T+E+).
The efficiency of fibroblast differentiation was estimated by analyzing the expression of the myofibroblast marker alpha smooth muscle actin (αSMA).
(§3) After four days of experiment, treated fibroblasts were lysed with TRIzol Reagent (Invitrogen) and stored at −80° C. Then RNA was purified using chloroform and precipitated by isopropanol. Total RNA was quantified on the NanoDrop 2000c Spectrophotometer (Thermo Scientific). Reverse transcription of 500 ng total RNA to cDNA was done with oligot dT (Invitrogen) using SuperScript III RT (Invitrogen) and RNAse OUT (Invitrogen). The cDNA was store at −20° C.
(§4) Quantitative real-time PCR (RT-qPCR) was done using 5 μL of 1:20 diluted cDNA on the LightCycler480 system (Roche) using Maxima SYBR Green qPCR Master Mix (Fermentas). Forward and reverse primers for αSMA were designed by Eurofins (MWG, αSMA forward: […] (SEQ ID NO:9), αSMA reverse: […] (SEQ ID NO:10)) and a 100 μM stock was stored at −20° C. Forward and reverse primer pairs were used for each RT-qPCR reaction. The cycling conditions were as follows: an initial 95° C. for 10 minutes, followed by 45 cycles of 95° C. for 15 sec, 58° C. for 30 sec, 72° C. for 20 sec. LightCycler 480 SW 1.5 was used to evaluate the TM curves, to determine the Cp and to approximate the relative concentration for each amplification reaction.
Cells grown in collagen coated culture dishes, and treated as previously described, were fixed with 4% paraformaldehyde (PFA) in PBS for 15 minutes and permeabilized with 2.5% Triton X-100 (Euromedex, 2000-B) in PBS for 3 minutes. After saturation with 5% BSA in PBS, cells were stained for α-SMA (Abcam, ab5694) and for DNA (DAPI). As secondary antibody, CyTM3 conjugated anti rabbit (GE Healthcare, PA43004) was used. […] To estimate the percentage of fibroblast differentiation due to the different treatments, the total number of cells per field was determined by the DAPI, and myofibroblasts, differentiated fibroblasts, were counted using the α-SMA staining. […]

[2] = test system: Normal Human Dermal Fibroblast (NHDF); assay: ex vivo model of chronic wounds: NHDF differentiation in presence of chronic wound exudate; details: TGFβ, exudate and Am580 versus same condition without Am580
Method: as §1
To collect exudates, two patients with mixed ulcers were recruited. For patient selection, it was decided to exclude any other comorbidity factor potentially involved in wound etiology: diabetes, peripheral arterial diseases, malnutrition. Exudates were collected from negative pressure therapy. All the exudates were centrifuged at 1,500×g for 3 minutes to remove cell debris. The supernatant was filtered and stored at −80° C. until use. Aliquots were used to determine protein concentration according to BCA method (Sigma).
as §2
For the chronic or non-healing wound model, chronic wound exudates were added to cell cultures (500 μg/mL of total proteins of exudate). […]

[3] = test system: Normal Human Dermal Fibroblast (NHDF); assay: transcription factor mRNA levels in treated NHDF by RT-qPCR; details: Gant 61
Method: FIG. 6: Graphic representation of the TCF4 (a), EGR2 (b), SOX9 (c), STAT4 (d), FOXS1 (e), PPARG (f), MAF (g), MEOX2 (h), and SIX2 (i) mRNA levels after NHDF (donor A) treatment for 48 h (light grey) or 72 h (dark grey) either with mock siRNA or siRNA directed against different TF mRNA (SOX9, EGR2, TCF4, or FOXS1) and concomitantly treated with TGF-β. For all graphs, the mock siRNA treated with TGF-β (T+E) condition was set to 100% for each time of treatment (48 h and 72 h).
FIG. 10: Graphic representation of the αSMA, GLI1, SOX9 and MAF mRNA levels assessed by RT-qPCR of NHDFs treated by Gant 61.
as §3, §4

CC1(C)CCC(C)(C)c2cc(C(=O)Nc3ccc(C(=O)O)cc3)ccc21 [Am580, 4-[(5,6,7,8-Tetrahydro-5,5,8,8-tetramethyl-2-naphthalenyl)carboxamido]benzoic acid]
differentiation followed with αSMA mRNA ([1]; Am580 5 nM in presence of TGFβ): increase differentiation
differentiation followed with ACTC1 mRNA ([1]; Am580 in presence of TGFβ): increase differentiation
differentiation followed with PI16 mRNA ([1]; Am580 in presence of TGFβ): increase differentiation
PI16 mRNA [2]: increase
αSMA mRNA [2]: increase

CN(C)c1ccccc1CN1CCCN(Cc2ccccc2N(C)C)C1c1ccncc1 [Gant 61]
MAF mRNA [3]: decrease
SOX9 mRNA [3]: increase
expression of GLI1 (mRNA) [3]: upregulate
differentiation shown by α-SMA mRNA ([1]; Gant 61 4 μM): upregulation
